Laboratory results: US7592351B2, “Substituted imidazo[1,2-a]pyridine compounds and pharmaceutical preparations containing substituted imidazo[1,2-a]pyridine compounds” (Gruenenthal GmbH, priority 2004, dated 2009)
Counter-ions that a name gives are not always drawn.

How the values were obtained:
[1] = biological target: T1, vanilloid receptor VR1 (capsaicin receptor) (Rattus norvegicus, UniProt O35433); assay: Determination of affinity for vanilloid receptor VR1 ([3H] resiniferatoxin binding, rat spinal cord membranes); design: species or system Sprague Dawley rats; settings: method (a); 10 μM; read-out: % VR1 binding % inhibition at 10 μM [2]
T1 construct: isolated from the spinal cord of male Sprague Dawley rats (breeder: Charles River Deutschland, 32699 Extertal) and used for preparation of the membrane; from tissue; host or cells: rat spinal cord (cervical region and one third of the thoracic region) membranes
Description: This method was developed on the basis of the publication by Acs et al., J. Neurochem. 65, 301-308 (1995). The corresponding description is hereby introduced as a reference and is deemed to be part of the disclosure.
• Sprague Dawley rats weighing between 150-300 g • (breeder: Charles River Deutschland, 32699 Extertal, Germany) • HEPES (item no. H-3375, SIGMA) • NaCl (item no. 6400.1000; Merck) • KCl (item no.: 4936.1000; Merck) • HCl (item no.: 1.00317; Merck) • [^3H] resiniferatoxin ([^3H] RTX) (item no.: NET-1132, Perkin-Elmer) • Resiniferatoxin (RTX, cold) (item no.: 550-179-M001, Alexis) • D-Glucose (item no.: 1.08337.1000, Merck) • Sucrose (item no.: S-9378, Sigma) • α1-acid glycoprotein (item no.: G-3643, Sigma) • BSA (bovine serum albumin, item no.: A-2153, Sigma) • GF/B filter mats (Brandel Inc., cat. no. FP 100, size: 2¼″×12¼″)
Buffer: (Concentration values in brackets in each case in mM)
• HEPES (10); KCl (5); NaCl (5.8); CaCl (0.75); MgCl (2.0); D-glucose (12); • sucrose (137). The pH value is adjusted at room temperature using 20% strength HCl. B. Preparation of Membranes
The cervical region and one third of the following thoracic region is isolated from the spinal cord of male Sprague Dawley rats (breeder: Charles River Deutschland, 32699 Extertal) and used for preparation of the membrane. After the combined tissue is weighed, it is homogenized in ice-cooled buffer of the above-stated composition. 20 ml of buffer were used per 1 g of tissue (1:20 weight/volume). Homogenisation performed with a homogeniser from Kinematica, model Polytron PT-3000 with PT-DA-3012/2 drive unit. The spinal cord tissue is disrupted within 60 seconds in the cold buffer with ice cooling at a rotational speed of 6000 rpm. The material is then centrifuged for 10 minutes at 1000 g and +4° C. and the resultant precipitate discarded. The […] in the same volume of buffer of the above-stated composition. The material is then centrifuged for 40 minutes at 48,000 g and +4° C. and the supernatant discarded. The resultant precipitate is resuspended in 30 ml of buffer of the above-stated composition and used in this form in the vanilloid receptor (VR1) assay.
Incubation is performed in the water bath for one hour at 37° C. The samples are then placed in an ice bath for 15 minutes. In order to minimise nonspecific adsorption of the RTX, 100 μg of α1-acid glycoprotein (in 50 μl of buffer) are added to each incubation tube. The samples are then thoroughly mixed on a vortex shaker and left to stand for 10 minutes. The batches are then filtered with the assistance of the model M-24R “Brandel Cell Harvester” through a GF/B glass fiber filter mat which has been presoftened in tris buffer. The filter is then rinsed through 3 times with 4 ml portions of ice-cold HEPES buffer of the above-stated composition for each sample. The filters are transferred into scintillation counter vessels, each is combined with a 10 ml portion of “Ready Protein” scintillating material, and the vessels are closed with screw caps. The vessels are shaken on the vortex shaker and left to stand for at least 15 hours in the fume cupboard. The samples are then measured on the β-counter (model 1409 Wallac, Perkin Elmer, 63110 Rogau-Jügesheim, Germany).

[2] = biological target: T2, cannabinoid receptor 1 (CB1) (Rattus norvegicus, UniProt P20272); assay: Determination of affinity for cannabinoid receptor 1 (CB1) ([3H] WIN55,212-2 binding, rat cerebellum membranes); design: species or system Sprague Dawley rats; settings: method (c)
T2 construct: Tissue: rat cerebellum; from tissue; host or cells: rat cerebellum membranes
Description: (c) Determination of Affinity for Cannabinoid Receptor 1 (CB1)
The method was developed on the basis of the publication of D'Ambra et al, J. Med. Chem. 35, 124-135 (1992), but at variance therewith the ligand stated below is used. The disclosure of this article is hereby incorporated by reference.
• Sprague Dawley rats weighing between 150-350 g • (breeder: Charles River Deutschland, 32699 Extertal, Germany) • Ligand: [^3H] WIN55, 212-2; Perkin Elmer, item. no. NET 1058 • Ligand cold: WIN 55, 212-2 mesylate; Tocris; item. no. 1038 • HEPES: Sigma, item no. H-3375 • BSA: Sigma, item no. A-2153 • GF/B filter mats (Brandel Inc., cat. no. FP 100, size 2¼″×12¼″) • Ready Protein scintillating material (item no. 586604, Beckmann, 85716 Unterschlei ? heim) • Tissue: rat cerebellum • Tissue & incubation buffer: 20 mM HEPES pH 7.0. • Filtration buffer: 20 mM HEPES pH 7.0 containing 0.5 mg of BSA/ml which prevents adsorption. • Filter mat softening buffer: 20 mM HEPES pH 7.0 containing 5 mg of BSA/ml. B. Preparation of Cerebellum:
20 ml of ice-cooled buffer are used per 1 g of brain tissue. The brain tissue is disrupted within 30 seconds in the cold buffer with ice cooling at a rotational speed of 6000 rpm using a homogeniser from Kinematica, model Polytron PT-3000 with PT-DA-3012/2 drive unit. The resultant homogenate is then diluted with cold buffer to a ratio of 100 ml/g of tissue. Centrifugation is then performed for 15 minutes at 49,000 g and 4° C. Once centrifugation is complete, the supernatants are decanted and the precipitates resuspended in fresh, cold buffer. Acceptable suspension of the pellets is obtained at only 1000 rpm in the homogeniser with ice cooling and a processing time of at most 60 seconds. This last centrifugation step is repeated twice more (in each case washed with 20 mM HEPES pH 7.0). The precipitated is then suspended with buffer in a ratio of 1:120 (weight/volume).
Incubation is performed for 90 minutes at room temperature, i.e. 25° C. The batches are then rapidly suction filtered with the assistance of the Brandel Cell Harvester (model M-24-R, Adi Hassel, 80809 Munich, Germany) through GF/B filter mats, which have previously been softened in HEPES buffer pH 7.0 containing 5 mg/ml of BSA, and rewashed with 20 ml of filtration buffer (ice-cooled). After transferring the filters into scintillation vials and adding a 10 ml portion of scintillation liquid (Ready Protein) to each and then leaving to stand for 15 hours, the samples are measured in the scintillation counter (Perkin Elmer, model Wallac 1409).

vanilloid receptor (VR1) = biological target: T3, vanilloid receptor (VR1) (Rattus norvegicus, UniProt O35433); assay: Functional investigations on vanilloid receptor (VR1): Ca2+ influx FLIPR assay in CHO K1 cells stably transfected with the VR1 gene; assay type: cell-based, rats; settings: for inhibition at 10 µM: CHO-K1, read-out: % Inhibition [1]; for % Activation [1]: method (b), substance 10 μM, relative to Ca2+ signal after 10 μM capsaicin, means from 4–5 measurements
T3 construct: expressed in transfected cells; host or cells: CHO K1 cells (ECACC)
Description: (b) Functional Investigations on Vanilloid Receptor (VR1)
The agonistic or antagonistic action of the substances to be investigated on the vanilloid receptor (VR1) may be determined with the following assay. According to this assay, the influx of Ca^2+ through the channel is quantified with the assistance of a Ca^2+-sensitive dye (type Fluo4, Molecular Probes Europe BV, Leiden, Netherlands) in a Fluorescent Imaging Plate Reader (FLIPR, Molecular Devices, Sunnyvale, USA).
Chinese hamster ovary cells (CHO K1 cells, European Collection of Cell Cultures (ECACC), Great Britain) are stably transfected with the VR1 gene. For functional investigations, these cells are plated out onto poly-D-lysine-coated, black 96 well plates with a clear bottom (BD Biosciences, Heidelberg, Germany) at a density of 25,000 cells/well. The cells are incubated overnight at 37° C. and 5% CO2 in a culture medium (Ham's Nutrient Mixture F12, 10 vol. % FCS (foetal calf serum), 18 μg/mL L-proline). On the following day, the cells are incubated with Fluo4 (Fluo4 2 μM, Pluronic F127 0.01 vol. %, Molecular Probes in HBSS (Hank's buffered saline solution), Gibco Invitrogen GmbH, Karlsruhe, Germany) for 30 minutes at 37° C. The plates are then washed 3 times with HBSS buffer and, after a further 15 minutes' incubation at room temperature, used for Ca^2+ measurement in the FLIPR. Ca^2+-dependent fluorescence is here measured before and after addition of the substances to be investigated (wavelength λex=488 nm, λem=540 nm). Quantification proceeds by measuring the highest fluorescence intensity (FC, fluorescence counts) over time.
The FLIPR protocol comprises 2 additions of substance. […] The percentage inhibition in comparison with the maximum achievable inhibition with 10 μM capsazepine is calculated.

T2 sequence (P20272 whole entry): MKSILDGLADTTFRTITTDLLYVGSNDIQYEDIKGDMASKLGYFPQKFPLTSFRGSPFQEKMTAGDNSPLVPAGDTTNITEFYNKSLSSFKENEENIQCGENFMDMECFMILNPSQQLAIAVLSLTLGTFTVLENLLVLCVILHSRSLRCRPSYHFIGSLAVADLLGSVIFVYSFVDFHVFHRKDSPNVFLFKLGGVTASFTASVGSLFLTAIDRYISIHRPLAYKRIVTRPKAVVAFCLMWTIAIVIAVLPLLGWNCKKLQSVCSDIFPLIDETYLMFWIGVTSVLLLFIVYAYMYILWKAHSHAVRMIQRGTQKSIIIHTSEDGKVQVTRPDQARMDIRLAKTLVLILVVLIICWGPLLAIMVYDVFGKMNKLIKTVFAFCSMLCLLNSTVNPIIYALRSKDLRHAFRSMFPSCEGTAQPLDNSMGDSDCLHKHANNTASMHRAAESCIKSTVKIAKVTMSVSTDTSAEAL
T3 sequence (O35433 whole entry): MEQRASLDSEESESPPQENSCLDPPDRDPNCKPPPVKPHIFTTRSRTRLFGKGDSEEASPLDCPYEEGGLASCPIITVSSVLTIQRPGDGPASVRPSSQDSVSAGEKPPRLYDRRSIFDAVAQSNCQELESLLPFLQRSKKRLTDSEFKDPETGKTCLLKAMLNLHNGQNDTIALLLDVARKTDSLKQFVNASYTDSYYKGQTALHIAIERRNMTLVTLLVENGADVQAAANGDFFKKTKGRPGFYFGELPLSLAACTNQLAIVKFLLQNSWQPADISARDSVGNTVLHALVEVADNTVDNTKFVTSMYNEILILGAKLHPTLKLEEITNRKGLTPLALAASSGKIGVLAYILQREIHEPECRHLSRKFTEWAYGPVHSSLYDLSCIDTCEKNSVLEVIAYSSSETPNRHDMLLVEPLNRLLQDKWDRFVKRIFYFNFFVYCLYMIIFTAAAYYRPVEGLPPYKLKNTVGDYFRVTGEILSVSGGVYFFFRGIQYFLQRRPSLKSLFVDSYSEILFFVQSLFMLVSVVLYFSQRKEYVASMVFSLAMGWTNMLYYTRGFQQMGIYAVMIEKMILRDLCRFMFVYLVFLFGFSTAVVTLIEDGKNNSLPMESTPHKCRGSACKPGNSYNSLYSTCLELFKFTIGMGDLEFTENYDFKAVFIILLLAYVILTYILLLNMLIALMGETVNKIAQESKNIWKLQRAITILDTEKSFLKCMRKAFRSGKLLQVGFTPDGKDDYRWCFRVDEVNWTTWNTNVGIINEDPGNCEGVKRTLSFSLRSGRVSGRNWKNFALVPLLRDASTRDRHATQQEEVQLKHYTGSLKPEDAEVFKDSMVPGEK
T1 sequence (O35433 whole entry): as above

SMILES | inhibition at 10 µM [1] | inhibition at 10 µM [2] | inhibition at 10 µM (vanilloid receptor (VR1)) | % Activation [1] (vanilloid receptor (VR1))
Cc1cc(C)n2c(NC(C)(C)CC(C)(C)C)c(-c3ccsc3)nc2c1 [Example 1, (5,7-Dimethyl-2-thiophen-3-yl-imidazo[1,2-a]pyridin-3-yl)-(1,1,3,3-tetramethylbutyl)-amine hydrochloride] | 42.5% | 43% |  | 
CC(C)(C)CC(C)(C)Nc1c(-c2ccsc2)nc2ccccn12 [Example 2, (1,1,3,3-Tetramethylbutyl)-(2-thiophen-3-yl-imidazo-[1,2-a]pyridin-3-yl)amine hydrochloride] | 36% | 47% | 32.2% | 
CC(C)(C)CC(C)(C)Nc1c(-c2ccoc2)nc2ccccn12 [Example 4, (2-Furan-3-yl-imidazo[1,2-a]pyridin-3-yl)-(1,1,3,3-tetramethylbutyl)amine hydrochloride] |  | 35% | 44.1% | 
Cc1ccn2c(NC(C)(C)CC(C)(C)C)c(-c3ccsc3)nc2c1.Cl [Example 3, (7-Methyl-2-thiophene-3-yl-imidazo[1,2-a]pyridin-3-yl)-(1,1,3,3-tetramethylbutyl)-amine hydrochloride] |  | 35.5% | 65% | 30.1%
Cc1ccn2c(NC(C)(C)CC(C)(C)C)c(-c3ccoc3)nc2c1.Cl [Example 5, (2-Furan-3-yl-7-methyl-imidazo[1,2-a]pyridin-3-yl)-(1,1,3,3-tetramethylbutyl)amine hydrochloride] |  | 32.7% | 80.7% | 32.4%
